US20230167118A1, “DEGRADATION OF BRUTON'S TYROSINE KINASE (BTK) BY CONJUGATION OF BTK INIDBITORS WITH E3 LIGASE LIGAND AND METHODS OF USE” (BEIGENE, LTD., priority 2020, published 2023)
Counter-ions that a name gives are not always drawn.

Tests used:
[1] = test system: HEK-293 cells; assay: HEK-293 Cytotoxicity Assay (CellTiter-Glo); format: cell-based; conditions: Homo sapiens, HEK293, 72 h incubation, CellTiter-Glo luminescence
Procedure, shortened: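 Four-parameter fit of % inhibition gives IC50, from CellTiter-Glo luminescent viability read-out. Cells exposed for 72 h to an 8-point, 4-fold series at 0.2% DMSO.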

[2] = target: T1, BTK (Homo sapiens, UniProt Q06187); assay: Cell Degradation: BTK degradation in TMD-8 cells, HTRF assay; format: cell-based; conditions: 6 h treatment, IC50 (DC50) of BTK degradation
T1 construct: High control=Cell group with added DMSO and without compound, indicating microplate readings without BTK degradation; endogenous in cells; host or cells: TMD-8 cells
T1 sequence (Q06187 whole entry): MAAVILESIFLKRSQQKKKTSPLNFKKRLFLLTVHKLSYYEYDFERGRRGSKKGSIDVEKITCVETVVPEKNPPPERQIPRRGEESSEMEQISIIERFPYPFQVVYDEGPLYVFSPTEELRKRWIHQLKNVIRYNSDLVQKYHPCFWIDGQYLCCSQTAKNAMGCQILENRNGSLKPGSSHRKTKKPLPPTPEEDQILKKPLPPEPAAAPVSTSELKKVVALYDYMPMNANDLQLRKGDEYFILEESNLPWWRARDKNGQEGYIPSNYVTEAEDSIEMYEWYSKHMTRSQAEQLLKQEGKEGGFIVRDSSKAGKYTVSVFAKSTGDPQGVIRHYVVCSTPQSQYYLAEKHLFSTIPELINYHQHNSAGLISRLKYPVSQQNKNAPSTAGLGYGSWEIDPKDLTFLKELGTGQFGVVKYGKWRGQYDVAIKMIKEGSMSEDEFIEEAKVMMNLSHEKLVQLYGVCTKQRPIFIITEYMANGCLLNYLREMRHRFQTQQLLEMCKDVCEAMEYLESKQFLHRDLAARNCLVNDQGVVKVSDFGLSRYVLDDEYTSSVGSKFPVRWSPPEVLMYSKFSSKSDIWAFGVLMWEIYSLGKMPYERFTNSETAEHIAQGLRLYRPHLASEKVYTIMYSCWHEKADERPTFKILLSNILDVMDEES
Procedure, shortened: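 BTK levels read by HTRF (665 vs 620 nm) in lysates of TMD-8 cells after 6 h compound exposure (eight doses, 6-fold steps, 0.2% DMSO). Percent degradation relative to controls; four-parameter curve fitting gave DC50, with Dmax the top degradation.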

## C[C@@H](NC(=O)c1nc(C(C)(C)C)no1)c1ccc(-c2ncnc3[nH]c(-c4ccc(N5CCN(CC6CCN(c7ccc(N8CCC(=O)NC8=O)cc7)CC6)CC5)cc4)cc23)cc1F [Example 21, (R)-3-(tert-butyl)-N-(1-(4-(6-(4-(4-((1-(4-(2,4-dioxotetrahydropyrimidin-1(2H)-yl)phenyl)piperidin-4-yl)methyl)piperazin-1-yl)phenyl)-7H-pyrrolo[2,3-d]pyrimidin-4-yl)-2-fluorophenyl)ethyl)-1,2,4-oxadiazole-5-carboxamide]
[1]
  IC50: > 10000 nM
[2]
  DC50: 1.7 nM

## Cc1nn(C2CCN(CC3CCN(c4ccc(N5CCC(=O)NC5=O)cc4)CC3)CC2)c(C)c1-c1cc2c(-c3ccc([C@@H](C)NC(=O)c4noc(C(C)(C)C)n4)c(CO)c3)ncnc2[nH]1 [Example 120, (R)-5-(tert-butyl)-N-(1-(4-(6-(1-(1-((1-(4-(2,4-dioxotetrahydropyrimidin-1(2H)-yl)phenyl)piperidin-4-yl)methyl)piperidin-4-yl)-3,5-dimethyl-1H-pyrazol-4-yl)-7H-pyrrolo[2,3-d]pyrimidin-4-yl)-2-(hydroxymethyl)phenyl)ethyl)-1,2,4-oxadiazole-3-carboxamide]
[1]
  IC50: > 10000 nM
[2]
  DC50: 0.18 nM

## C[C@@H](NC(=O)c1nc(C(C)(C)C)no1)c1ccc(-c2ncnc3[nH]c(-c4ccc(N5CCN(CC6CCN(c7ccc(N8CCC(=O)NC8=O)cc7)CC6)CC5)cn4)cc23)cc1CO [Example 170, (R)-3-(tert-butyl)-N-(1-(4-(6-(5-(4-((1-(4-(2,4-dioxotetrahydropyrimidin-1(2H)-yl)phenyl)piperidin-4-yl)methyl)piperazin-1-yl)pyridin-2-yl)-7H-pyrrolo[2,3-d]pyrimidin-4-yl)-2-(hydroxymethyl)phenyl)ethyl)-1,2,4-oxadiazole-5-carboxamide]
[1]
  IC50: > 10000 nM
[2]
  DC50: 0.17 nM

## Cc1cc(-c2ncnc3[nH]c(-c4ccc(N5CCN(CC6CCN(c7ccc(N8CCC(=O)NC8=O)cc7)CC6)CC5)cc4)cc23)c(F)cc1[C@@H](C)NC(=O)c1nc(C(C)(C)C)no1 [Example 79, (R)-3-(tert-butyl)-N-(1-(4-(6-(4-(4-((1-(4-(2,4-dioxotetrahydropyrimidin-1(2H)-yl)phenyl)piperidin-4-yl)methyl)piperazin-1-yl)phenyl)-7H-pyrrolo[2,3-d]pyrimidin-4-yl)-5-fluoro-2-methylphenyl)ethyl)-1,2,4-oxadiazole-5-carboxamide]
[1]
  IC50: > 10000 nM
[2]
  DC50: 1.5 nM

## Cc1cc(-c2ncnc3[nH]c(-c4ccc(OC5CCN(CC6CCN(c7ccc(N8CCC(=O)NC8=O)cc7)CC6)CC5)cc4)cc23)ccc1CNC(=O)c1nc(C(C)(C)C)no1 [Example 49, 3-(tert-butyl)-N-(4-(6-(4-((1-((1-(4-(2,4-dioxotetrahydropyrimidin-1(2H)-yl)phenyl)piperidin-4-yl)methyl)piperidin-4-yl)oxy)phenyl)-7H-pyrrolo[2,3-d]pyrimidin-4-yl)-2-methylbenzyl)-1,2,4-oxadiazole-5-carboxamide]
[1]
  IC50: > 10000 nM
[2]
  DC50: 1.3 nM

## Cc1cc(-c2ncnc3[nH]c(-c4ccc(C5CCN(CC6CCN(c7ccc(N8CCC(=O)NC8=O)cc7F)CC6)CC5)cc4)cc23)ccc1CNC(=O)c1nc(C(C)(C)C)no1 [Example 39, 3-(tert-butyl)-N-(4-(6-(4-(1-((1-(4-(2,4-dioxotetrahydropyrimidin-1(2H)-yl)-2-fluorophenyl)piperidin-4-yl)methyl)piperidin-4-yl)phenyl)-7H-pyrrolo[2,3-d]pyrimidin-4-yl)-2-methylbenzyl)-1,2,4-oxadiazole-5-carboxamide Formate]
[1]
  IC50: > 10000 nM
[2]
  DC50: 1.1 nM

## Cc1cc(-c2ncnc3[nH]c(-c4ccc(N5CC6(CN(CC7CCN(c8ccc(N9CCC(=O)NC9=O)cc8)CC7)C6)C5)cc4)cc23)ccc1[C@@H](C)NC(=O)c1nc(C(C)(C)C)no1 [Example 164, (R)-3-(tert-butyl)-N-(1-(4-(6-(4-(6-((1-(4-(2,4-dioxotetrahydropyrimidin-1(2H)-yl)phenyl)piperidin-4-yl)methyl)-2,6-diazaspiro[3.3]heptan-2-yl)phenyl)-7H-pyrrolo[2,3-d]pyrimidin-4-yl)-2-methylphenyl)ethyl)-1,2,4-oxadiazole-5-carboxamide]
[1]
  IC50: > 10000 nM
[2]
  DC50: 1.26 nM

## Cc1cc(-c2ncnc3[nH]c(-c4ccc(N5CCN(CC6CCN(c7ccc(-n8ccc(=O)[nH]c8=O)cc7)CC6)CC5)nc4)cc23)ccc1[C@@H](C)NC(=O)c1nc(C(C)(C)C)no1 [Example 187, (R)-3-(tert-butyl)-N-(1-(4-(6-(6-(4-((1-(4-(2,4-dioxo-3,4-dihydropyrimidin-1(2H)-yl)phenyl)piperidin-4-yl)methyl)piperazin-1-yl)pyridin-3-yl)-7H-pyrrolo[2,3-d]pyrimidin-4-yl)-2-methylphenyl)ethyl)-1,2,4-oxadiazole-5-carboxamide]
[1]
  IC50: > 10000 nM
[2]
  DC50: 2.65 nM

## Cc1cc(-c2ncnc3[nH]c(-c4ccc(N5CCN(CC6CCN(c7ccc(N8CCC(=O)NC8=O)cc7)CC6)CC5)cn4)cc23)ccc1[C@@H](C)NC(=O)c1nnc(C(C)(C)C)o1 [Example 185, (R)-5-(tert-butyl)-N-(1-(4-(6-(5-(4-((1-(4-(2,4-dioxotetrahydropyrimidin-1(2H)-yl)phenyl)piperidin-4-yl)methyl)piperazin-1-yl)pyridin-2-yl)-7H-pyrrolo[2,3-d]pyrimidin-4-yl)-2-methylphenyl)ethyl)-1,3,4-oxadiazole-2-carboxamide]
[1]
  IC50: > 10000 nM
[2]
  DC50: 0.5 nM

## Cc1cc(-c2ncnc3[nH]c(-c4ccc(N5CCCN(CC6CCN(c7ccc(N8CCC(=O)NC8=O)cc7)CC6)CC5)cc4)cc23)ccc1[C@@H](C)NC(=O)c1nc(C(C)(C)C)no1 [Example 167, (R)-3-(tert-butyl)-N-(1-(4-(6-(4-(4-((1-(4-(2,4-dioxotetrahydropyrimidin-1(2H)-yl)phenyl)piperidin-4-yl)methyl)-1,4-diazepan-1-yl)phenyl)-7H-pyrrolo[2,3-d]pyrimidin-4-yl)-2-methylphenyl)ethyl)-1,2,4-oxadiazole-5-carboxamide]
[1]
  IC50: > 10000 nM
[2]
  DC50: 2.61 nM

## Cc1cc(-c2ncnc3[nH]c(-c4ccc(C5CCN(CC6CCN(c7ccc(N8CCC(=O)NC8=O)cc7)CC6)C5)cn4)cc23)ccc1[C@@H](C)NC(=O)c1nc(C(C)(C)C)no1 (stereo partly drawn) [Example 176, 3-(tert-butyl)-N-((1R)-1-(4-(6-(5-(1-((1-(4-(2,4-dioxotetrahydropyrimidin-1(2H)-yl)phenyl)piperidin-4-yl)methyl)pyrrolidin-3-yl)pyridin-2-yl)-7H-pyrrolo[2,3-d]pyrimidin-4-yl)-2-methylphenyl)ethyl)-1,2,4-oxadiazole-5-carboxamide]
[1]
  IC50: > 10000 nM
[2]
  DC50: 1.1 nM

## Cc1cc(-c2ncnc3[nH]c(-c4c(C)nn(C5CCN(CC6CCN(c7ccc(N8CCC(=O)NC8=O)cc7)CC6)CC5)c4C)cc23)ccc1[C@@H](C)NC(=O)c1noc(C(C)(C)C)n1 [Example 62, (R)-5-(tert-butyl)-N-(1-(4-(6-(1-(1-((1-(4-(2,4-dioxotetrahydropyrimidin-1(2H)-yl)phenyl)piperidin-4-yl)methyl)piperidin-4-yl)-3,5-dimethyl-1H-pyrazol-4-yl)-7H-pyrrolo[2,3-d]pyrimidin-4-yl)-2-methylphenyl)ethyl)-1,2,4-oxadiazole-3-carboxamide]
[1]
  IC50: > 10000 nM
[2]
  DC50: 0.53 nM
